As a reminder, the IC50 is the concentration that inhibits the measured activity by half.

In one assay the target is VIM-1 (Pseudomonas aeruginosa (strain ATCC 15692 / DSM 22644 / CIP 104116 / JCM 14847 / LMG 12228 / 1C / PRS 101 / PAO1), UniProt A0A0F7KYQ8). The assay is described as follows: Enzyme activity: determination of IC50, fluorescence assay with CCF2-FA substrate (VIM-1). The format is biochemical. The note with it: CCF2-FA substrate.
A further assay deals with NDM-1 (Klebsiella pneumoniae, UniProt C7C422). Briefly: biochemical. It counts as biochemical. The note with it: NDM-1 enzyme, CCF2-FA substrate; read-out: NDM-1 IC50.
The next assay concerns the target IMP-1 (Serratia marcescens, UniProt P52699). Briefly: biochemical. The format is biochemical. The note with it: IMP-1 enzyme, CCF2-FA substrate; read-out: IMP-1 IC50.
Assay [1] deals with Serratia marcescens expressing IMP-1 (CL5741). Briefly: Antibiotic potentiation activity: synergistic concentration (MITC95) with imipenem, OD600 growth. The format is cell-based. The note with it: Serratia marcescens CL5741 (IMP-1), 95% growth inhibition. The essentials:
(§1)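 Compound activity is tested with and without imipenem, which is present at 4 μg/ml (or 1 μg/ml) in the well. Bacteria in 1.1× CAMHB are incubated 22–24 h at 35 °C; absorbance gives the growth endpoint.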

The test system of assay [2] is Escherichia coli expressing NDM-1 (CLB30016). The description is as above. It counts as cell-based. The note with it: (CLB30016, NDM-1), 95% growth inhibition. The essentials:
as §1

In assay [3] the test system is Klebsiella pneumoniae expressing VIM-1 (IHMA599644). Described as above. The format is cell-based. The note with it: Klebsiella pneumoniae IHMA599644 (VIM-1), 95% growth inhibition. In short, it runs like this: as §1
The mark [4] stands for this setting: VIM-1 enzyme, read-out: VIM-1 IC50.

Read-outs that look alike come from different tables or passages of the source.

IMP-1, sequence (P52699 whole entry, looked up): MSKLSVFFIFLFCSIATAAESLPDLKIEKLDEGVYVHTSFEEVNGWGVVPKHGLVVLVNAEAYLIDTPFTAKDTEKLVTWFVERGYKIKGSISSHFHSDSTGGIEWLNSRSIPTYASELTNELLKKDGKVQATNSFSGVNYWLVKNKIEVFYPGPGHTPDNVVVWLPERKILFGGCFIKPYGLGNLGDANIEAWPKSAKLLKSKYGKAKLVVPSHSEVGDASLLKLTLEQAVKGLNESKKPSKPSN
NDM-1, sequence (C7C422 whole entry, looked up, species assumed): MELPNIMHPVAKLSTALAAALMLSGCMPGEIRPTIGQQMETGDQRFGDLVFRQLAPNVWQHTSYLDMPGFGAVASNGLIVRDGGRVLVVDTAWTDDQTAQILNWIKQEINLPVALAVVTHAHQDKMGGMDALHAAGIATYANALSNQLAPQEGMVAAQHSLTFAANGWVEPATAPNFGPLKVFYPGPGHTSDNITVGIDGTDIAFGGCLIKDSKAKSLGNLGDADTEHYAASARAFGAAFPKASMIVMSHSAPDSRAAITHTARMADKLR

Take `NCCCc1ccc(-c2ccc(C(F)(F)F)c(S(N)(=O)=O)c2-c2nnn[nH]2)cc1` [Example 735, 4′-(3-aminopropyl)-2-(1H-tetrazol-5-yl)-4-(trifluoromethyl)biphenyl-3-sulfonamide]: the results for the IC50 on VIM-1 (setting [4]), on NDM-1 and on IMP-1 were 0.388 nM, 3.03 nM and 1.7 nM, respectively. The “Serratia marcescens MITC95” value in assay [1] turned out to be 3.125 µM. For the same compound, the “Escherichia coli MITC95” value in assay [2] stood at 3.125 µM. For the same compound, the “Klebsiella pneumoniae MITC95” value in assay [3] was determined as 6.25 µM.
On to `NCCS(=O)(=O)c1ccc(-c2ccc(C(F)(F)F)c(S(N)(=O)=O)c2-c2nnn[nH]2)cc1` [Example 736, 4′-[(2-aminoethyl)sulfonyl]-2-(1H-tetrazol-5-yl)-4-(trifluoromethyl)biphenyl-3-sulfonamide], for which the IC50 on VIM-1 (setting [4]) is 1.59 nM; at NDM-1, 3.23 nM; at IMP-1, 3.23 nM. In assay [1], the “Serratia marcescens MITC95” value was 6.25 µM. Further, the “Escherichia coli MITC95” value in assay [2] worked out at 6.25 µM. Also, the “Klebsiella pneumoniae MITC95” value in assay [3] turned out to be 6.25 µM.
For the compound `NS(=O)(=O)Cc1cccc(-c2ccc(C(F)(F)F)c(S(N)(=O)=O)c2-c2nnn[nH]2)c1` [Example 737, 3′-(sulfamoylmethyl)-2-(1H-tetrazol-5-yl)-4-(trifluoromethyl)biphenyl-3-sulfonamide], the IC50 was determined as 4.29 nM on VIM-1 (VIM-1 IC50, VIM-1 enzyme); 4.95 nM on NDM-1; 3.02 nM at IMP-1. Also, in assay [1], the “Serratia marcescens MITC95” value turned out to be 3.125 µM. Further, in assay [2], the “Escherichia coli MITC95” value was determined as 6.25 µM. Moreover, in assay [3], the “Klebsiella pneumoniae MITC95” value amounted to 25 µM.
In the case of `NS(=O)(=O)c1c(C(F)(F)F)ccc(-c2ccc(C(O)C3CCNCC3)cc2)c1-c1nnn[nH]1` (stereo not drawn) [Example 738, 4′-[hydroxy(piperidin-4-yl)methyl]-2-(1H-tetrazol-5-yl)-4-(trifluoromethyl)biphenyl-3-sulfonamide], the IC50 came to 3.41 nM against VIM-1 (VIM-1 IC50, VIM-1 enzyme); 1.28 nM at NDM-1; 2.28 nM at IMP-1. Moreover, the “Serratia marcescens MITC95” value in assay [1] was 6.25 µM. The “Escherichia coli MITC95” value in assay [2] came to 3.125 µM. Also, the “Klebsiella pneumoniae MITC95” value in assay [3] is 50 µM.
As for `NS(=O)(=O)c1c(C(F)(F)F)ccc(-c2cccc(N3CCCC(O)C3)c2)c1-c1nnn[nH]1` (stereo not drawn) [Example 739, 3′-(3-hydroxypiperidin-1-yl)-2-(1H-tetrazol-5-yl)-4-(trifluoromethyl)biphenyl-3-sulfonamide], the IC50 at VIM-1 (setting [4]) is 2.77 nM; at NDM-1 it was 3.84 nM; at IMP-1 it was 6.82 nM. In addition, the “Serratia marcescens MITC95” value in assay [1] stood at 25 µM. Besides, the “Escherichia coli MITC95” value in assay [2] turned out to be 25 µM. Further, the “Klebsiella pneumoniae MITC95” value in assay [3] was over 200 µM.
Take `NS(=O)(=O)c1c(C(F)(F)F)ccc(-c2ccc(N3CCC(O)CC3)cc2)c1-c1nnn[nH]1` [Example 740, 4′-(4-hydroxypiperidin-1-yl)-2-(1H-tetrazol-5-yl)-4-(trifluoromethyl)biphenyl-3-sulfonamide]: the IC50 on VIM-1 (setting [4]) is 1.15 nM; at NDM-1, 0.229 nM; on IMP-1, 0.456 nM. The “Serratia marcescens MITC95” value in assay [1] was determined as 6.25 µM. In assay [2], the “Escherichia coli MITC95” value was 6.25 µM. In addition, in assay [3], the “Klebsiella pneumoniae MITC95” value worked out at 50 µM.
Regarding `NS(=O)(=O)c1c(C(F)(F)F)ccc(-c2cccc(N3CCC(O)CC3)c2)c1-c1nnn[nH]1` [Example 741, 3′-(4-hydroxypiperidin-1-yl)-2-(1H-tetrazol-5-yl)-4-(trifluoromethyl)biphenyl-3-sulfonamide], the IC50 on VIM-1 (setting [4]) turned out to be 2.74 nM; at NDM-1, 4.65 nM; at IMP-1 it was 6.12 nM. For the same compound, the “Serratia marcescens MITC95” value in assay [1] was 25 µM. In assay [2], the “Escherichia coli MITC95” value worked out at 25 µM. For the same compound, the “Klebsiella pneumoniae MITC95” value in assay [3] is over 200 µM.

These data come from patent publication US9708336B2, “Metallo-beta-lactamase inhibitors” (priority 2014, dated 2017).
